Measurements: patent US20070265164A1, “Active Substances for Increasing Pathogenic Defense in Plants and Methods for the Detection Thereof” (Bayer Cropscience GmbH, priority 2004, published 2007)

Assays:
Assay type in all cases: in vivo
Parameters in all cases: fold induction: dose or concentration left out as unconfirmed
[1] = tested on: HI02E21u_s_at, Lipoxygenase (EC 1.13.11.12); experiment: GEP, barley DNA chip, probe set 1.2; details: for fold induction: rates of Table 1 (S7 500)
Method: (§1) Barley plants (cv. Baronesse) were grown in compost-filled pots (diameter: 10 cm) for 10 days in a controlled-environment cabinet under defined light, humidity and temperature conditions (white light, 70% atmospheric humidity, 24° C.). At the time of spray application, the seedlings were approximately 15 cm in size. The test substances selected in this example were molecules which differ markedly in their structure and which have a well documented pronounced safener effect, and other molecules which are known from the literature to have an effect on plant stress and pathogen tolerance (Table 1). The substances were prepared as stock solutions in DMSO (dimethyl sulfoxide) at c=10 mg/ml). This was used for preparing dilutions in water supplemented with 0.2% Agrotin (comprises polyvinyl alcohol, silicones, polysaccharides and pH regulators, manufacturer: Bayer CropScience AG, Monheim, Germany), as wetter, to give the application rates shown in the table. The amount of liquid for the spray application was 800 μl per pot, corresponding to 800 l/ha. For each 800 μl of spray mixture, 16 μl of EC premix: diacetone alcohol=1:6 were additionally added as formulation auxiliaries. The substances listed in Table 1 were applied to the leaves by means of a pneumatic spray pistol. Each substance was sprayed as 2 dosages, and all experiments were carried out as replicates (2 pots per substance). Sprayings with blank formulation without active ingredient were carried out as controls. After 6 hours, the leaves were harvested, frozen in liquid nitrogen and stored at −80° C. until further use. The labeled RNA probes for the DNA chip hybridization were prepared as described in the protocols (Expression Analysis, Technical Manual) from Affymetrix (Affymetrix Inc., 3380 Central Expressway, Santa Clara, Calif., USA). First, total RNA was isolated from in each case 500 mg of the harvested leaves. In each case 10 μg of total RNA was used for the first-strand and second-strand cDNA synthesis. The cDNA was amplified with T7 polymerase and simultaneously labeled with biotin-UTP. In each case, 20 μg of this biotinylated cDNA was employed for the hybridization of the barley genome array (Gene Chip Barleyl, order No.: 511012) from Affymetrix. This DNA microarray comprises DNA sequences of 22 840 genes which are composed of a total of 400 000 EST sequences. Thereafter, the DNA microarrays were washed in the Affymetrix Fluidics Station, stained with streptavidin/phycoerythrin (Molecular Probes, P/N S-866) and scanned with the matching Agilent Laser Scanner (Agilent Gene Array Scanner). The fluorescent data obtained were analyzed with the software Microarray Suite 5 from Affymetrix. After the quality had been checked, all DNA chip analyses were stored in a database. To determine the relative expression values for genes (induction factors, repression factors), test and control chips were compared with each other, and the scoring function set by the Affymetrix software was used as the basis. The 2 biological replications of one experiment were compared in each case with 2 control chips (blank formulation), and the 4 expression values obtained for each gene were used for calculating the median. These medians are shown in the results tables as induction factors. Similarity comparisons of expression profiles from different experiments and cluster analyses were carried out using the software GeneMaths 1.5 from Applied Maths (Applied Maths, Keistraat 120, 9830 Sint-Martens-Latem, Belgium).
(§2) Gene groups from specific metabolic pathways and signal transduction chains were put together by key word search in the annotations, of the genes, which were also provided by Affymetrix, and by Blast analyses (homology comparisons) of the DNA target sequences, i.e. of the positive sequence (identified on the basis of a modified expression profile) identified on the DNA chip, using gene sequences from other organisms, preferably plant organisms, with characterized functions. […]

[2] = tested on: Contig5146_at, Probable 12-oxophytodienoate reductase (EC 1.3.1.42); experiment: GEP, barley DNA chip, probe set 1.4; details: for fold induction: rates of Table 1 (S7 500)
Method: as §1, §2

[3] = tested on: Contig6194_a_at, 12-oxophytodienoic acid reductase; experiment: GEP, barley DNA chip, probe set 1.7; details: for fold induction: rates of Table 1 (S7 500)
Method: as §1, §2

[4] = tested on: Contig9556_at, 12-oxophytodienoate reductase 3; experiment: GEP, barley DNA chip, probe set 1.8; details: for fold induction: rates of Table 1 (S7 500)
Method: as §1, §2

[5] = tested on: Contig12574_at, Putative lipoxygenase; experiment: GEP, barley DNA chip, probe set 1.11; details: for fold induction: rates of Table 1 (S7 500)
Method: as §1, §2

[6] = tested on: Contig6611_at, Similar to lipases; experiment: GEP, barley DNA chip, probe set 1.12; details: for fold induction: rates of Table 1 (S7 500)
Method: as §1, §2

[7] = tested on: Contig2305_at, Methyljasmonate inducible lipoxygenase; experiment: GEP, barley DNA chip, probe set 1.14; details: for fold induction: rates of Table 1 (S7 500)
Method: as §1, §2

[8] = tested on: Contig1737_at, Probable lipoxygenase; experiment: GEP, barley DNA chip, probe set 1.15; details: for fold induction: rates of Table 1 (S7 500)
Method: as §1, §2

[9] = tested on: Contig13413_at, Similar to lipases; experiment: GEP, barley DNA chip, probe set 1.17; details: for fold induction: rates of Table 1 (S7 500)
Method: as §1, §2

[10] = tested on: Contig2326_s_at, 12-oxophytodienoic acid reductase; experiment: GEP, barley DNA chip, probe set 1.18; details: for fold induction: rates of Table 1 (S7 500)
Method: as §1, §2

[11] = tested on: Contig88_x_at, Putative proteinase inhibitor; experiment: GEP, barley DNA chip, probe set 2.3; details: for fold induction: rates of Table 1 (S7 500)
Method: as §1, §2

[12] = tested on: Contig2118_at, Peroxidase (EC 1.11.1.7), pathogen-induced; experiment: GEP, barley DNA chip, probe set 4.1; details: for fold induction: rates of Table 1 (S7 500)
Method: as §1, §2

[13] = tested on: HV_Ceb0020D05r2_s_at, Allene oxide cyclase; experiment: GEP, barley DNA chip, probe set 1.6; details: Hordeum vulgare, topical, read-out: Expression value, 1.6 HV_Ceb0020 D05r2_s_at; for fold induction: barley leaves 6 h after spray application, rates of Table 1 (S7 500), median induction factor vs control
Method: as §1, §2

[14] = barley leaves 6 h after spray application, rates of Table 1 (150 g a.i./ha, S7 500), median induction factor vs control
[15] = Hordeum vulgare, topical, barley leaves 6 h after spray application, median induction factor vs control, read-out: Expression value, 1.2 HI02E21u_s_at
[16] = Hordeum vulgare, topical, barley leaves 6 h after spray application, median induction factor vs control, read-out: Expression value, 1.4 Contig5146_at
[17] = Hordeum vulgare, topical, barley leaves 6 h after spray application, median induction factor vs control, read-out: Expression value, 1.7 Contig6194_a_at
[18] = Hordeum vulgare, topical, barley leaves 6 h after spray application, median induction factor vs control, read-out: Expression value, 1.8 Contig9556_at
[19] = Hordeum vulgare, barley leaves 6 h after spray application, median induction factor vs control, read-out: Expression value, 1.11 Contig12574_at
[20] = Hordeum vulgare, topical, barley leaves 6 h after spray application, median induction factor vs control, read-out: Expression value, 1.12 Contig6611_at
[21] = Hordeum vulgare, topical, barley leaves 6 h after spray application, median induction factor vs control, read-out: Expression value, 1.14 Contig2305_at
[22] = Hordeum vulgare, topical, barley leaves 6 h after spray application, median induction factor vs control, read-out: Expression value, 1.15 Contig1737_at
[23] = Hordeum vulgare, topical, barley leaves 6 h after spray application, median induction factor vs control, read-out: Expression value, 1.17 Contig13413_at
[24] = Hordeum vulgare, topical, barley leaves 6 h after spray application, median induction factor vs control, read-out: Expression value, 1.18 Contig2326_s_at
[25] = Hordeum vulgare, topical, barley leaves 6 h after spray application, median induction factor vs control, read-out: Expression value, 2.3 Contig88_x_at
[26] = Hordeum vulgare, topical, barley leaves 6 h after spray application, median induction factor vs control, read-out: Expression value, 4.1 Contig2118_at

Row | Structure (SMILES) | fold induction [1, 15] | fold induction [2, 16] | fold induction [13] | fold induction [3, 17] | fold induction [4, 18] | fold induction [5, 19] | fold induction [6, 20] | fold induction [7, 21] | fold induction [8, 22] | fold induction [9, 23] | fold induction [10, 24] | fold induction [11, 25] | fold induction [12, 26] | other results
1 | O=C(NO)c1ccccc1O [S7, Salicyl hydroxamate] | – | – | – | – | – | – | – | – | – | – | – | – | – | Expression value, 1.2 HI02E21u_s_at [1, 14]: 1.00 x times; Expression value, 1.4 Contig5146_at [2, 14]: 1.00 x times; Expression value, 1.7 Contig6194_a_at [3, 14]: 1.00 x times; Expression value, 1.8 Contig9556_at [4, 14]: 1.00 x times; Expression value, 1.11 Contig12574_at [5, 14]: 1.00 x times; Expression value, 1.12 Contig6611_at [6, 14]: 2.31 x times; Expression value, 1.14 Contig2305_at [7, 14]: 41.07 x times; Expression value, 1.15 Contig1737_at [8, 14]: 1.00 x times; Expression value, 1.17 Contig13413_at [9, 14]: 1.00 x times; Expression value, 1.18 Contig2326_s_at [10, 14]: 1.00 x times; Expression value, 2.3 Contig88_x_at [11, 14]: 21.86 x times; Expression value, 4.1 Contig2118_at [12, 14]: 1.00 x times
2 | CCOC(=O)C(Oc1ccc(Cl)c2cccnc12)C(=O)OCC [S5] | 1 | 5.35 | 1 | 2.81 | 1 | 1 | 1 | 1 | 1 | 1 | 1 | 1 | 2.33 | –
3 | O=C(O)c1cc(Cl)nc(Cl)c1 [S9] | – | – | – | – | – | – | – | – | – | – | – | – | – | fold induction at 150 g/ha ([1]; Hordeum vulgare, topical, 6 h, read-out: Expression value, 1.2 HI02E21u_s_at): 3.03; fold induction at 150 g/ha ([2]; Hordeum vulgare, topical, 6 h, read-out: Expression value, 1.4 Contig5146_at): 1; fold induction at 150 g/ha ([13]; 6 h): 1; fold induction at 150 g/ha ([3]; Hordeum vulgare, topical, 6 h, read-out: Expression value, 1.7 Contig6194_a_at): 1; fold induction at 150 g/ha ([4]; Hordeum vulgare, topical, 6 h, read-out: Expression value, 1.8 Contig9556_at): 1; fold induction at 150 g/ha ([5]; Hordeum vulgare, 6 h, read-out: Expression value, 1.11 Contig12574_at): 1; fold induction at 150 g/ha ([6]; Hordeum vulgare, topical, 6 h, read-out: Expression value, 1.12 Contig6611_at): 2; fold induction at 150 g/ha ([7]; Hordeum vulgare, topical, 6 h, read-out: Expression value, 1.14 Contig2305_at): 12.6; fold induction at 150 g/ha ([8]; Hordeum vulgare, topical, 6 h, read-out: Expression value, 1.15 Contig1737_at): 1; fold induction at 150 g/ha ([9]; Hordeum vulgare, topical, 6 h, read-out: Expression value, 1.17 Contig13413_at): 1; fold induction at 150 g/ha ([10]; Hordeum vulgare, topical, 6 h, read-out: Expression value, 1.18 Contig2326_s_at): 1; fold induction at 150 g/ha ([11]; Hordeum vulgare, topical, 6 h, read-out: Expression value, 2.3 Contig88_x_at): 4.59; fold induction at 150 g/ha ([12]; Hordeum vulgare, topical, 6 h, read-out: Expression value, 4.1 Contig2118_at): 1
4 | CCCCCC(C)OC(=O)COc1ccc(Cl)c2cccnc12 (stereo not shown) [S4, Cloquintocet-mexyl] | 1 | 4.72 | 1 | 2.17 | 1 | 1 | 1 | 1 | 1 | 1 | 2.45 | 1 | 1 | –
5 | O=C(O)C1=NN(c2ccc(Cl)cc2Cl)C(c2ccc(F)cc2)C1 (stereo not shown) [S2] | 1 | 4.47 | 1 | 4.14 | 1 | 1 | 1 | 1 | 1 | 1 | 1 | 1 | 1 | –
6 | CSC(=O)c1cccc2nnsc12 [S8, Acibenzolar-S-methyl] | 1 | 1 | 1 | 1 | 1 | 2.11 | 3.61 | 81.6 | 1 | 2.17 | 1 | 22.9 | 1 | –
7 | COC(=O)C1=NN(c2ccc(Cl)cc2Cl)C(C)(C(=O)OC)C1 (stereo not shown) [S1, Mefenpyr-dimethyl] | 1 | 7.73 | 1 | 12.9 | 1 | 0.5 | 1 | 1 | 1 | 1 | 2.31 | 1 | 8.69 | –
8 | O=C(O)c1cc(Cl)cc(Cl)c1O [S10] | 4.66 | 1 | 1 | 1 | 1 | 1 | 2.38 | 18.1 | 1 | 1 | 1 | 4.41 | 1 | –
